We go through 18 molecules from US20090253669A1, “Substituted Sulfonamide Compounds” (GRUENENTHAL GmbH, priority 2008, published 2009).

In experiment [1] the target is T1, human B1R receptor (hB1R) (Homo sapiens, UniProt P46663).
T1 construct: host or cells: CHO K1 cells
T1 sequence (P46663 1-353): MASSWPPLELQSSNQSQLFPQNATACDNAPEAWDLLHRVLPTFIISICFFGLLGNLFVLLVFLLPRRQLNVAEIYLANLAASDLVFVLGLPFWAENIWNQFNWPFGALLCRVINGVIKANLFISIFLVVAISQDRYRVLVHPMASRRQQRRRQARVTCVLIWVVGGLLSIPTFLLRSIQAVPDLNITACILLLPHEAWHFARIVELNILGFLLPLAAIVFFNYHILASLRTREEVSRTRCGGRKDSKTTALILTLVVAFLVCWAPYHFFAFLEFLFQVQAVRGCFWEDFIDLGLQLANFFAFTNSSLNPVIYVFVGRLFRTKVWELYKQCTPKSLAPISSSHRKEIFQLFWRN
The experiment can be described thus: FLIPR Ca2+ assay on hB1R-transfected CHO K1 cells, antagonistic action. It is filed as cell-based. The following applies: CHO-K1, 10 μM test substance; agonist Lys-Des-Arg9-bradykinin 0.5 nM; % of maximum achievable inhibition; read-out: hB1R [10 μM] % inhibition.

Experiment [2] addresses T2, B1R receptor of the rat (rB1R) (Rattus norvegicus, UniProt P97583).
T2 construct: host or cells: CHO K1 cells
T2 sequence (P97583 1-337): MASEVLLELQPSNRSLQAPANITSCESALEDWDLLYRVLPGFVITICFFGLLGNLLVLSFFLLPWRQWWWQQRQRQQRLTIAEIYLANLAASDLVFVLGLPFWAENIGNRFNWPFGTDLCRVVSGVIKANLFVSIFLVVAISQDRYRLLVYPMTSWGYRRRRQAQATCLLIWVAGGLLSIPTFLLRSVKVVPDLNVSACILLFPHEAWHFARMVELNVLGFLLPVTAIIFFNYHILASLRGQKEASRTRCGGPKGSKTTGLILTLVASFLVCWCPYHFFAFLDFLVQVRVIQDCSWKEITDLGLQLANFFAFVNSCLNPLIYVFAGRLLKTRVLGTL
The experiment can be described thus: FLIPR Ca2+ assay on rB1R-transfected CHO K1 cells, antagonistic action. It is filed as cell-based. Conditions: CHO-K1, 10 μM test substance; agonist Des-Arg9-bradykinin 100 nM; % of maximum achievable inhibition; read-out: rB1R [10 μM] % inhibition.

As to `CN(CCCC1CCC(Cc2ccccc2)(N2CCCC2)CC1)C(=O)CC1CCCCN1S(=O)(=O)c1cccc(C(F)(F)F)c1` (stereo not drawn) [Compound 93, N-(3-(4-benzyl-4-(pyrrolidin-1-yl)cyclohexyl)propyl)-N-methyl-2-(1-(3-(trifluoromethyl)phenylsulfonyl)piperidin-2-yl)acetamide], the values for the inhibition at 10 µM in experiment [1] and in experiment [2] were 98% and 94%, respectively.
In the same order, the values of `Cc1cc(S(=O)(=O)N2CCCCC2CCC(=O)N2CCC(Cc3ccccc3)(N(C)C)CC2)c(C)cc1Cl` (stereo not drawn) [Compound 80, 1-(4-benzyl-4-(dimethylamino)piperidin-1-yl)-3-(1-(4-chloro-2,5-dimethylphenylsulfonyl)piperidin-2-yl)propan-1-one] are 86% and 99%.
As for `COc1cc(C)c(S(=O)(=O)N(C)CCOCC(=O)NC2CCC(Cc3ccccc3)(N3CCCCCC3)CC2)c(C)c1` (stereo not drawn) [Compound 20, N-(4-(azepan-1-yl)-4-benzylcyclohexyl)-2-(2-(4-methoxy-N,2,6-trimethylphenylsulfonamido)ethoxy)acetamide], the inhibition at 10 µM stood at 91% in experiment [1] and 69% in experiment [2].
As for `CN1CCN(C2(c3cccc(F)c3)CCN(C(=O)COCC3CCc4ccccc4N3S(=O)(=O)c3ccc(Cl)c(Cl)c3)CC2)CC1` (stereo not drawn) [Compound 103, 2-((1-(3,4-dichlorophenylsulfonyl)-1,2,3,4-tetrahydroquinolin-2-yl)methoxy)-1-(4-(3-fluorophenyl)-4-(4-methylpiperazin-1-yl)piperidin-1-yl)ethanone], the inhibition at 10 µM in experiment [1] turned out to be 73%; in experiment [2] it was 82%.
In the same order, the values of `COc1cc(C)c(S(=O)(=O)N(C)CCOCC(=O)N2CCC(CCc3ccccc3)(N3CCN(C)CC3)CC2)c(C)c1` [Compound 87, 4-methoxy-N,2,6-trimethyl-N-(2-(2-(4-(4-methylpiperazin-1-yl)-4-phenethylpiperidin-1-yl)-2-oxoethoxy)ethyl)benzenesulfonamide] are 99% and 98%.
Turning to `O=C(CC1c2ccccc2CCN1S(=O)(=O)c1ccc(Cl)c(Cl)c1)NC1CCC(Cc2ccccc2)(N2CCCCC2)CC1` (stereo not drawn) [Compound 15, N-(4-benzyl-4-(piperidin-1-yl)cyclohexyl)-2-(2-(3,4-dichlorophenylsulfonyl)-1,2,3,4-tetrahydroisoquinolin-1-yl)acetamide], the inhibition at 10 µM in experiment [1] is 55%; in experiment [2], 82%.
On the same counts, the results for `COc1cc(C)c(S(=O)(=O)N(C)CCOCC(=O)NC2CCC(c3ccccc3)(N3CCCC3)CC2)c(C)c1` (stereo not drawn) [Compound 150, 2-(2-(4-methoxy-N,2,6-trimethylphenylsulfonamido)ethoxy)-N-(4-phenyl-4-(pyrrolidin-1-yl)cyclohexyl)acetamide] are 102% and 104%.
On the same counts, the results for `COc1cc(C)c(S(=O)(=O)N2CCCC2COCC(=O)N(C)CC2CCC(CCc3ccccc3)(N3CCN(C)CC3)CC2)c(C)c1` (stereo not drawn) [Compound 148, 2-((1-(4-methoxy-2,6-dimethylphenylsulfonyl)pyrrolidin-2-yl)methoxy)-N-methyl-N-((4-(4-methylpiperazin-1-yl)-4-phenethylcyclohexyl)methyl)acetamide] are 102% and 106%.
In the same order, the values of `Cc1cc(S(=O)(=O)N2CCCCC2CCC(=O)N(C)CCC2CCC(CCc3ccccc3)(N(C)C)CC2)c(C)cc1Cl` (stereo not drawn) [Compound 132, 3-(1-(4-chloro-2,5-dimethylphenylsulfonyl)piperidin-2-yl)-N-(2-(4-(dimethylamino)-4-phenethylcyclohexyl)ethyl)-N-methylpropanamide] are 103% and 43%.
As to `COc1cc(C)c(S(=O)(=O)N(C)CCOCC(=O)NC2CCC(Cc3ccccc3C)(N(C)C)CC2)c(C)c1` (stereo not drawn) [Compound 10, N-(4-(dimethylamino)-4-(2-methylbenzyl)cyclohexyl)-2-(2-(4-methoxy-N,2,6-trimethylphenylsulfonamido)ethoxy)acetamide], the inhibition at 10 µM amounted to 103% in experiment [1] and 95% in experiment [2].
On the same counts, the results for `COc1cc(C)c(S(=O)(=O)N(C)CCOCC(=O)N(C)CC2CCC(CCc3ccccc3)(N3CCN(C)CC3)CC2)c(C)c1` (stereo not drawn) [Compound 165, 2-(2-(4-methoxy-N,2,6-trimethylphenylsulfonamido)ethoxy)-N-methyl-N-((4-(4-methylpiperazin-1-yl)-4-phenethylcyclohexyl)methyl)acetamide] are 103% and 90%.
On the same counts, the results for `COc1cc(C)c(S(=O)(=O)N2CCCCC2COCC(=O)N(C)CCC2CCC(c3ccccc3)(N3CCCC3)CC2)c(C)c1` (stereo not drawn) [Compound 60, 2-((1-(4-methoxy-2,6-dimethylphenylsulfonyl)piperidin-2-yl)methoxy)-N-methyl-N-(2-(4-phenyl-4-(pyrrolidin-1-yl)cyclohexyl)ethyl)acetamide] are 103% and 100%.
On the same counts, the results for `COc1cc(C)c(S(=O)(=O)N2CCCCC2COCC(=O)N(C)CC2CCC(CCc3ccccc3)(N3CCCC3)CC2)c(C)c1` (stereo not drawn) [Compound 51, 2-((1-(4-methoxy-2,6-dimethylphenylsulfonyl)piperidin-2-yl)methoxy)-N-methyl-N-((4-phenethyl-4-(pyrrolidin-1-yl)cyclohexyl)methyl)acetamide] are 102% and 100%.
On to `COc1cc(C)c(S(=O)(=O)N2CCCCC2COCC(=O)N(C)CC2CCC(Cc3ccccc3)(N3CCCC3)CC2)c(C)c1` (stereo not drawn) [Compound 78, N-((4-benzyl-4-(pyrrolidin-1-yl)cyclohexyl)methyl)-2-((1-(4-methoxy-2,6-dimethylphenylsulfonyl)piperidin-2-yl)methoxy)-N-methylacetamide], for which the inhibition at 10 µM was 101% in experiment [1] and 99% in experiment [2].
On the same counts, the results for `Cc1ccccc1CC1(N(C)C)CCC(NC(=O)COCCN(C)S(=O)(=O)c2ccc(Cl)cc2Cl)CC1` (stereo not drawn) [Compound 30, 2-(2-(2,4-dichloro-N-methylphenylsulfonamido)ethoxy)-N-(4-(dimethylamino)-4-(2-methylbenzyl)cyclohexyl)acetamide] are 63% and 39%.
In the same order, the values of `COc1cc(C)c(S(=O)(=O)N2CCCCC2COCC(=O)NC2CCC(Cc3ccccc3)(N3CCCC3)CC2)c(C)c1` (stereo not drawn) [Compound 149, N-(4-benzyl-4-(pyrrolidin-1-yl)cyclohexyl)-2-((1-(4-methoxy-2,6-dimethylphenylsulfonyl)piperidin-2-yl)methoxy)acetamide] are 103% and 105%.
On the same counts, the results for `CN1CCN(C2(CCc3ccccc3)CCN(C(=O)CC3CCCCN3S(=O)(=O)c3cccc(C(F)(F)F)c3)CC2)CC1` (stereo not drawn) [Compound 119, 1-(4-(4-methylpiperazin-1-yl)-4-phenethylpiperidin-1-yl)-2-(1-(3-(trifluoromethyl)phenylsulfonyl)piperidin-2-yl)ethanone] are 90% and 69%.
For the molecule `COc1cc(C)c(S(=O)(=O)N(C)CCOCC(=O)NC2CCC(c3ccccc3)(N3CCOCC3)CC2)c(C)c1` (stereo not drawn) [Compound 167, 2-(2-(4-methoxy-N,2,6-trimethylphenylsulfonamido)ethoxy)-N-(4-morpholino-4-phenylcyclohexyl)acetamide], the inhibition at 10 µM is 100% in experiment [1] and 88% in experiment [2].
